Data published in patent publication US11384063B2, “Modulators of estrogen receptor proteolysis and associated methods of use” (Arvinas Operations, Inc., priority 2017, dated 2022).
Read-outs that look alike come from different tables or passages of the source.

Key:
ERα [1] = biological target: T1, ERα (Homo sapiens, UniProt P03372); assay: Estrogen receptor-alpha (ERα) degradation assay in MCF7 cells using In-Cell Western assay; assay type: cell-based; design: assessed for their activity in degrading ERα in MCF-7 cells via western blot; endogenous in cells; host or cells: MCF7 cells; settings: ER-alpha degradation in MCF7 cells, 5 days of incubation
T1 sequence (P03372 1-595): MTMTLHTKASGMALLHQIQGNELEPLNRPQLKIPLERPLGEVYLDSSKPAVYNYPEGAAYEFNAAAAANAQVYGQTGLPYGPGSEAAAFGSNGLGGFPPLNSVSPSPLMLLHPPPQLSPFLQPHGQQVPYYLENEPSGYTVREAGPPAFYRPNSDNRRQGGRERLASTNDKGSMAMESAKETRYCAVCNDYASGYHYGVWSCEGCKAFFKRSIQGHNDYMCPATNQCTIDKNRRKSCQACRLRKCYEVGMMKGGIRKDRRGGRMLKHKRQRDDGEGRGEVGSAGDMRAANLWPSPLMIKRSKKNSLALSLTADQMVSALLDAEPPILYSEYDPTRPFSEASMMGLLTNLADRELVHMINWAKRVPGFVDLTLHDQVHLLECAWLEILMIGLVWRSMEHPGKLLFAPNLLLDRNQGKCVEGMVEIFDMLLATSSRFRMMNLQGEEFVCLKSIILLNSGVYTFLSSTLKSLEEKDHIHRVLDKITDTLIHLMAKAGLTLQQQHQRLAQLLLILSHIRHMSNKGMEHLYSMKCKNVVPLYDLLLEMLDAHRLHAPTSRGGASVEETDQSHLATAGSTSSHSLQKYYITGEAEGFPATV
How it was run: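 MCF7 cells treated 3 or 5 days at 37 °C with 11-point 3-fold dilutions from 1 μM final top. Fixed cells immunostained for ERα and tubulin, read by infrared imaging at 700/800 nm. ERα normalized to tubulin then to DMSO vehicle; DC50 and Dmax from 4-parameter curve fit.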

ERα [2] = biological target: T1, ERα; assay: ERE luciferase reporter gene assay in T47D-KBluc cells (target engagement); assay type: cell-based; design: T47D human breast cancer cells stably transfected with estrogen responsive element/promoter/luciferase reporter gene; host or cells: T47D-KBluc cells; settings: 10% FBS, 24 hours, read-out: ER-α Luciferase IC50
How it was run: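 PROTACs were tested at 12 concentrations from 300 nM down to 2 pM in 3-fold steps for 24 h on T47D-KBluc cells with a stable ERE-driven luciferase. Medium was RPMI with 10% FBS, measured at 10 pM estrogen. IC50 came from luminescence after lysis, in duplicate.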

[3] = Table 3 cereblon centric PROTACs
[4] = Table 1 cereblon centric PROTACs

| DC50 (ERα [1]) | Dmax (ERα [1]) | IC50 (ERα [2]; [3]) | IC50 (ERα [2]; [4]) | Structure (SMILES) |
| --- | --- | --- | --- | --- |
| 10 to 100 nM | > 75% | 10.9 nM | – | O=C1CCC(N2Cc3cc(N4CCN(CC5CCN(c6ccc(Oc7c(-c8ccc(Br)cc8)sc8cc(O)ccc78)cc6F)CC5)CC4)ccc3C2=O)C(=O)N1 (centres unmarked) [Compound 238, 3-[5-[4-[[1-[4-[2-(4-bromophenyl)-6-hydroxy-benzothiophen-3-yl]oxy-2-fluoro-phenyl]-4-piperidyl]methyl]piperazin-1-yl]-1-oxo-isoindolin-2-yl]piperidine-2,6-dione] |
| 10 to 100 nM | > 75% | 3.5 nM | – | O=C1CCC(N2Cc3c(cc(F)c(N4CCN(C5CCN(CCOc6ccc(Oc7c(-c8ccc(Br)cc8)sc8cc(O)ccc78)cc6)CC5)CC4)c3F)C2=O)C(=O)N1 (centres unmarked) [Compound 205, 3-[5-[4-[1-[2-[4-[2-(4-bromophenyl)-6-hydroxybenzothiophen-3-yl]oxyphenoxy]ethyl]-4-piperidyl]piperazin-1-yl]-4,6-difluoro-1-oxo-isoindolin-2-yl]piperidine-2,6-dione] |
| < 1 nM | > 75% | 0.54 nM | – | O=C1CCC(N2Cc3cc(NCCCN4CCN(CCOc5ccc(Oc6c(-c7ccc(F)cc7)sc7cc(O)ccc67)cc5)CC4)ccc3C2=O)C(=O)N1 (centres unmarked) [Compound 174, 3-[5-[3-[4-[2-[4-[2-(4-fluorophenyl)-6-hydroxy-benzothiophen-3-yl]oxyphenoxy]ethyl]piperazin-1-yl]propylamino]-1-oxo-isoindolin-2-yl]piperidine-2,6-dione] |
| 1 to 10 nM | > 75% | 1.2 nM | – | O=C1CCC(N2Cc3cc(N4CCN(CC5CCN(c6ccc(Oc7c(-c8ccc(F)cc8)sc8cc(O)ccc78)cc6)CC5)CC4)ccc3C2=O)C(=O)N1 (centres unmarked) [Compound 226, 3-[5-[4-[[1-[4-[2-(4-fluorophenyl)-6-hydroxy-benzothiophen-3-yl]oxyphenyl]-4-piperidyl]methyl]piperazin-1-yl]-1-oxo-isoindolin-2-yl]piperidine-2,6-dione] |
| 1 to 10 nM | 50 to 75% | – | 4.8 nM | O=C1CCC(N2Cc3cc(NCCCOCCCOCCOc4ccc(Oc5c(-c6ccc(Br)cc6)sc6cc(O)ccc56)cc4)ccc3C2=O)C(=O)N1 (centres unmarked) [Compound 89, 3-[5-[3-[3-[2-[4-[2-(4bromophenyl)-6-hydroxy-benzothiophen-3-yl]oxyphenoxy]ethoxy]propoxy]propylamino]-1-oxo-isoindolin-2-yl]piperidine-2,6-dione] |
| 1 to 10 nM | 50 to 75% | 2.2 nM | – | COc1ccc2c(Oc3ccc(OCCN4CCN(CCCNc5ccc6c(c5)CN(C5CCC(=O)NC5=O)C6=O)CC4)cc3)c(-c3ccc(O)cc3)sc2c1 (centres unmarked) [Compound 181, 3-[5-[3-[4-[2-[4-[2-(4-hydroxyphenyl)-6-methoxy-benzothiophen-3-yl]oxyphenoxy]ethyl]piperazin-1-yl]propylamino]-1-oxo-isoindolin-2-yl]piperidine-2,6-dione] |
| – | < 50% | 11.2 nM | – | O=C1CCC(N2C(=O)c3ccc(N4CC(N5CCC(Oc6ccc(Oc7c(-c8ccc(Br)cc8)sc8cc(O)ccc78)cc6)CC5)C4)cc3C2=O)C(=O)N1 (centres unmarked) [Compound 213, 5-[3-[4-[4-[2-(4-bromophenyl)-6-hydroxybenzothiophen-3-yl]oxyphenoxy]-1-pipendyl]azetidin-1-yl]2-(2,6-dioxo-3-piperidyl)isoindoline-1,3-dione] |
| 10 to 100 nM | 50 to 75% | 0.53 nM | – | O=C1CCC(N2C(=O)c3ccc(N4CCN(CC5CCN(c6ccc(Oc7c(-c8ccc(O)cc8)sc8cc(O)ccc78)cc6)CC5)CC4)cc3C2=O)C(=O)N1 (centres unmarked) [Compound 245, 2-(2,6-dioxo-3-piperidyl)-5-[4-[[1-[4-[6-hydroxy-2-(4-hydroxyphenyl)benzothiophen-3-yl]oxyphenyl]-4-piperidyl]methyl]piperazin-1-yl]isoindoline-1,3-dione] |
| 1 to 10 nM | > 75% | 1.1 nM | – | O=C1CCC(N2Cc3nc(N4CCN(CC5CCN(c6ccc(Oc7c(-c8ccc(F)cc8)sc8cc(O)ccc78)cc6)CC5)CC4)ccc3C2=O)C(=O)N1 (centres unmarked) [Compound 230, 3-[2-[4-[[1-[4-[2-(4-fluorophenyl)-6-hydroxy-benzothiophen-3-yl]oxyphenyl]-4-pipendyl]methyl]piperazin-1-yl]-5-oxo-7H-pyrrolo[3,4-b]pyridin-6-yl]piperidine-2,6-dione] |
| 1 to 10 nM | > 75% | 1.9 nM | – | O=C1CC[C@H](N2Cc3cc(CCN4CCCN(CCCCOc5ccc(Oc6c(-c7ccc(Br)cc7)sc7cc(O)ccc67)cc5)CC4)ccc3C2=O)C(=O)N1 [Compound 182, (3S)-3-[5-[2-[4-[4-[4-[2-(4-bromophenyl)-6-hydroxy-benzothiophen-3-yl]oxyphenoxy]butyl]-1,4-diazepan-1-yl]ethyl]-1-oxo-isoindolin-2-yl]piperidine-2,6-dione] |
| 1 to 10 nM | > 75% | 24.9 nM | – | O=C1CCC(N2C(=O)c3ccc(N4CCN(CC5CCN(c6ccc(Oc7c(-c8ccc(Br)cc8)sc8cc(O)ccc78)cc6)CC5)CC4)cc3C2=O)C(=O)N1 (centres unmarked) [Compound 228, 5-[4-[[1-[4-[2-(4-bromophenyl)-6-hydroxy-benzothiophen-3-yl]oxyphenyl]-4-pipendyl]methyl]piperazin-1-yl]-2-(2,6-dioxo-3-piperidyl)isoindoline-1,3-dione] |
| 1 to 10 nM | 50 to 75% | 7.7 nM | – | O=C1CCC(N2Cc3cc(N4CCN(C5CC(Oc6ccc(Oc7c(-c8ccc(Br)cc8)sc8cc(O)ccc78)cc6)C5)CC4)ccc3C2=O)C(=O)N1 (centres unmarked) [Compound 224, 3-[5-[4-[3-[4-[2-(4-bromophenyl)-6-hydroxy-benzothiophen-3-yl]oxyphenoxy]cyclobutyl]piperazin-1-yl]-1-oxo-isoindolin-2-yl]piperidine-2,6-dione] |
| 1 to 10 nM | > 75% | 3.9 nM | – | O=C1CCC(N2Cc3cc(N4CCN(C5CCN(CCOc6ccc(Oc7c(-c8ccc(Br)cc8)sc8cc(O)ccc78)cc6)CC5)CC4)ccc3C2=O)C(=O)N1 (centres unmarked) [Compound 194, 3-[5-[4-[1-[2-[4-[2-(4-bromophenyl)-6-hydroxybenzothiophen-3-yl]oxyphenoxy]ethyl]-4-piperidyl]piperazin-1-yl]-1-oxo-isoindolin-2-yl]piperidine-2,6-dione] |
| 10 to 100 nM | 50 to 75% | – | 18.3 nM | O=C1CCC(N2C(=O)c3ccc(N4CCN(CCCCCOc5ccc(Oc6c(-c7ccc(Br)cc7)sc7cc(O)ccc67)cc5)CC4)cc3C2=O)C(=O)N1 (centres unmarked) [Compound 61, 5-{4-[5-(4-{[2-(4-bromophenyl)-6-hydroxy-1-benzothiophen-3-yl]oxy}phenoxy)pentyl]piperazin-1-yl}-2-(2,6-dioxopiperidin-3-yl)-2,3-dihydro-1H-isoindole-1,3-dione] |
| 1 to 10 nM | 50 to 75% | – | 3 nM | O=C1CCC(N2Cc3cc(CNC(=O)C4CCN(CCOc5ccc(Oc6c(-c7ccc(Br)cc7)sc7cc(O)ccc67)cc5)CC4)ccc3C2=O)C(=O)N1 (centres unmarked) [Compound 57, 1-(2-(4-(2-(4-bromophenyl)-6-hydroxybenzo[b]thiophen-3-yloxy)phenoxy)ethyl)-N-((2-(2,6-dioxopiperidin-3-yl)-1-oxoisoindolin-5-yl)methyl)piperidine-4-carboxamide] |
